Reference: publication PMC9820430, “New Affordable Methods for Large-Scale Isolation of Major Olive Secoiridoids and Systematic Comparative Study of Their Antiproliferative/Cytotoxic Effect on Multiple Cancer Cell Lines of Different Cancer Origins” (International Journal of Molecular Sciences, 2022)

Legend:
[1] = tested on: three breast cancer cell lines (MDA-MB-231, SK-BR-3 and MCF-7); assay: ATP-based luminescence cell viability assay, breast panel; design: species or system human
Procedure: (§1) The antiproliferative/cytotoxic effects of the selected OOPs on each cell line were assessed by measuring the cellular ATP levels after 72 h treatments using an ATP-based luminescence assay. This assay, initially developed as a tumor chemosensitivity assay, has shown considerable promise as a general in vitro toxicity assay due to its high sensitivity that allows the detection of a small number of cells. Consequently, it can be applied to both cancer cell lines and primary tissue cells. […] The EC50 values were calculated by nonlinear regression (curve fit) using a sigmoidal dose–response equation (Figure 2A and Figure S2).
The calculated EC50 values ranged between 9.1–100 μΜ (Table 1). The bioactivity of the oleocanthalic acid (7), studied here for the first time for its antiproliferative/cytotoxic activity, was initially evaluated systematically in the three breast cancer cell lines using a concentration range of 10–100 μM. In all cases, the viability measured was ≥80%, predicting EC50 values > 100 μΜ. […] For this reason, oleocanthalic acid (7) was excluded from the rest of this study.
(§2) The OOPs tested in this study were first dissolved in an appropriate DMSO volume such as to prepare a final stock solution of 50 mM, which was further used to prepare various compound concentrations in DMSO-based solutions. The final DMSO concentration in the cell culture was maintained constant in all treated groups of any given experiment and never exceeded the value of 0.2% (v/v). For the treatment experiments, cells were plated in 96-well culture plates, in 100 μL of complete medium at a seeding density of 5000–10,000 cells/well—depending on cells’ size and doubling time—and were allowed to adhere overnight (~16 h). The next day, 150 μL of complete medium was added to each well and the cells were treated with various concentrations of OOPs. Each concentration was tested in triplicate and was repeated 2–3 times. To prepare the final concentration solutions, 0.5 μL of a 500× stock of each tested compound in DMSO was added directly into each well in a final volume of 250 μL culture medium and was gently mixed by pipetting. Control wells were prepared under the same experimental conditions by adding only DMSO at a final concentration of 0.2% (v/v). Compounds were not renewed during the entire period of cell exposure. All cells were cultured at 37 °C in a 5% (v/v) CO2 for 24, 48 or 72 h.
Briefly, after the treatment with OOPs, the adapted medium was removed from the dish wells and the cells were washed twice with medium without FBS. Then, the C-lysis (LT27-076) was diluted in PBS (1:2) and a volume of 50 μL was added to each well. […] Cell viability was quantified by measuring luminescence using a multi-mode microplate reader Safire^2 Tecan (software Magellan V6.00 STD.2PC WIN.20000/XP).

[2] = tested on: sixteen human cancer cell lines originating from eight different tissues; assay: ATP-based luminescence cell viability assay, whole panel
Procedure: as §1, §2
(§3) Briefly, after the treatment with OOPs, the adapted medium was removed from the dish wells and the cells were washed twice with medium without FBS. Then, the C-lysis (LT27-076) was diluted in PBS (1:2) and a volume of 50 μL was added to each well. Cells were incubated with C-lysis for at least 10 min. Finally, an equal volume of lysed cells from each well and ATP monitoring reagent (AMR; LT27-212) was transferred to the wells of a white-walled illuminometer plate (Greiner bio-one; 655074). Cell viability was quantified by measuring luminescence using a multi-mode microplate reader Safire^2 Tecan (software Magellan V6.00 STD.2PC WIN.20000/XP).

[3] = tested on: MCF-7; assay: ATP-based luminescence cell viability assay (ViaLight), 72 h; design: species or system human; settings: Homo sapiens, MCF7, 72 h, 72 h treatment, read-out: EC50 Values of Olive Oil Polyphenols
Procedure: as §1, §2, §3

[4] = tested on: SK-BR-3; assay: as above; design: species or system human; settings: Homo sapiens, SK-BR-3, 72 h, SK-BR-3; 72 h treatment; read-out: EC50 Values of Olive Oil Polyphenols
Procedure: as §1, §2, §3

[5] = tested on: MDA-MB 231; assay: as above; design: species or system human; settings: Homo sapiens, MDA-MB-231, 72 h, MDA-MB 231; 72 h treatment; read-out: EC50 Values of Olive Oil Polyphenols
Procedure: as §1, §2, §3

EC50 ([1]; Homo sapiens, MDA-MB-231, SK-BR-3 and MCF-7, 72 h): > 100 µM
EC50 ([2]; Homo sapiens, 72 h treatment, range across cancer cell lines, read-out: EC50, range over the cancer cell lines): > 100 µM
EC50 [3]: > 100 µM
EC50 [4]: > 100 µM
EC50 [5]: > 100 µM
Structure (SMILES): C/C=C(/C=O)[C@@H](CC(=O)O)CC(=O)OCCc1ccc(O)cc1 [compound 7, oleocanthalic acid]
viability measured ([1]; three breast cancer cell lines, concentration range of 10–100 μM): ≥ 80%
Bioactivity range on cancer cell lines (grade in words) ([2]; Figure 3, sixteen cancer cell lines): Low activity
